Results published in article PMC9610298, “Synthesis, Biological Evaluation and Machine Learning Prediction Model for Fluorinated Cinchona Alkaloid-Based Derivatives as Cholinesterase Inhibitors” (Pharmaceuticals, 2022).

Legend:
purified human BChE = purified human BChE (Homo sapiens, UniProt P06276); experiment: Reversible inhibition of BChE, Ellman method, enzyme-inhibitor dissociation constants; assay type: biochemical; settings: for SI, selective index Ki(AChE)/Ki(BChE): times higher preference for BChE over AChE
purified human BChE, sequence (P06276 29-602): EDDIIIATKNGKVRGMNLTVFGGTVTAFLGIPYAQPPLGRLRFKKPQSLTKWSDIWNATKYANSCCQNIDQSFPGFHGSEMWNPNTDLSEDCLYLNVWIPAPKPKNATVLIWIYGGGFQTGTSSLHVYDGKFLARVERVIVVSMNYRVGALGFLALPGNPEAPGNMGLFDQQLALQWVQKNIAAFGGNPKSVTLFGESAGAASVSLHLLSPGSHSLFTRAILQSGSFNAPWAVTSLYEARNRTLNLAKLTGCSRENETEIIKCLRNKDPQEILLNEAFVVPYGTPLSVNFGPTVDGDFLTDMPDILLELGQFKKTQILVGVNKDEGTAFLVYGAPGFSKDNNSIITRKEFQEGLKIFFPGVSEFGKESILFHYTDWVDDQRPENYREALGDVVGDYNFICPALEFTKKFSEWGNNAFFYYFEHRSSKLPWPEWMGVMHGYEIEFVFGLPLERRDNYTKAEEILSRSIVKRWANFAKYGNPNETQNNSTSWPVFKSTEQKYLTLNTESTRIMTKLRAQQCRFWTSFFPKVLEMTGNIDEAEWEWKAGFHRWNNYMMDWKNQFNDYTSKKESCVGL
Description: (§1) As a source of BChE, a purified human BChE, and as AChE, a recombinant human AChE was used, both enzymes kindly provided by Dr. F. Nachon (Département de Toxicologie, Armed Forces Biomedical Research Institute, France). The concentrated stocks of enzymes (BChE: 5.6 µM; AChE: 0.20 µM) were diluted in a phosphate sodium buffer 0.1 M (pH 7.4) containing 0.1% BSA before starting the experiments.
(§2) Enzyme activities were measured spectrophotometrically by the Ellman method at […] using 0.30 mM DTNB as thiol reagent, ATCh as substrate and water in 0.1 M phosphate buffer, pH 7.4. For the inhibition measurements, the reaction mixture contained tested compounds instead of water. […] Measurements were done at 25 °C on a Tecan Infinite M200Pro plate reader (Austria). A detailed description of measurement protocol was described previously.
(§3) The reversible inhibition of BChE and AChE by tested compounds was measured by determining the decrease of enzyme activity towards ATCh in their presence. The activities of the enzymes were measured at different substrate concentrations ([S]; 0.050–0.50 mM) in the absence (v0) and presence (vi) of the given tested compounds concentration ([I]; 0.050–200 µM, depending on the compound) selected to inhibit the enzymes for 20–80%. At least three concentrations of inhibitors for each substrate concentration were used in at least three experiments. The apparent dissociation inhibition constant (Ki,app) was calculated applying the Hunter-Downs equation and linear regression analysis (1):(1) Ki,app=vi/v0−vi⋅I=KI+KI/KS⋅S where y-intercept determines the enzyme-inhibitor dissociation constants (K(I)), while x-intercept determines the enzyme-substrate dissociation constant, K(S). The determination of kinetic constants was carried out using the GraphPadPrism 6.0 program (GraphPad Software, San Diego, CA, USA).

recombinant human AChE = recombinant human AChE (Homo sapiens, UniProt P22303); experiment: Reversible inhibition of AChE, Ellman method, enzyme-inhibitor dissociation constants; assay type: biochemical; settings: ± standard error; ATCh substrate, 25 °C, pH 7.4
recombinant human AChE, sequence (P22303 32-614): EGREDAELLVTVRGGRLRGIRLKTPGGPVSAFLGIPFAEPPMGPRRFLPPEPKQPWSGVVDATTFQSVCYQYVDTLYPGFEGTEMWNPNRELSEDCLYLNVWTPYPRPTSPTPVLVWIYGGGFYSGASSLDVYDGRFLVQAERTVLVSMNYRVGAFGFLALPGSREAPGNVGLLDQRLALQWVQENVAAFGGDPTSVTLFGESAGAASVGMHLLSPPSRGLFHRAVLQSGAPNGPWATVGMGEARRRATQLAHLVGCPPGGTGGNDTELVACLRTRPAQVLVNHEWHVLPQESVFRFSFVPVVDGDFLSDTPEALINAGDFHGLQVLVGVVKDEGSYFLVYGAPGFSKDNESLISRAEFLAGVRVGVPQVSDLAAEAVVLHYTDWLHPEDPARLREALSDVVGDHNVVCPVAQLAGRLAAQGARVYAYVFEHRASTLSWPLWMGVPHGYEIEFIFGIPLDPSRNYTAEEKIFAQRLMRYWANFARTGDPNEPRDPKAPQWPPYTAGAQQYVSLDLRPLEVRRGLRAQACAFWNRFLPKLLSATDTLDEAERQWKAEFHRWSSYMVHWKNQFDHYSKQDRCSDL
Description: as §1, §2, §3

[1] = ± standard error, ATCh substrate, 25 °C, pH 7.4

C=CC1C[N+]2(Cc3cccc(F)c3F)CCC1C[C@H]2[C@H](O)c1ccnc2ccccc12 (some centres unmarked) [CD 2,3F]
SI, selective index Ki(AChE)/Ki(BChE) (purified human BChE): 25
Ki (purified human BChE; [1]): 0.75 ± 0.03 µM
Ki (recombinant human AChE): 19 ± 1 µM

C=CC1C[N+]2(Cc3ccc(F)cc3F)CCC1C[C@H]2[C@H](O)c1ccnc2ccccc12 (some centres unmarked) [CD 2,4F]
SI, selective index Ki(AChE)/Ki(BChE) (purified human BChE): 1.1
Ki (purified human BChE; [1]): 6.1 ± 0.5 µM
Ki (recombinant human AChE): 6.4 ± 0.3 µM

C=CC1C[N+]2(Cc3c(F)cccc3F)CCC1C[C@H]2[C@H](O)c1ccnc2ccccc12 (some centres unmarked) [CD 2,6F]
SI, selective index Ki(AChE)/Ki(BChE) (purified human BChE): 0.77
Ki (purified human BChE; [1]): 9.9 ± 0.4 µM
Ki (recombinant human AChE): 7.7 ± 0.5 µM

C=CC1C[N+]2(Cc3c(F)cccc3Cl)CCC1C[C@H]2[C@H](O)c1ccnc2ccccc12 (some centres unmarked) [CD 2Cl-6F, N-(2-chloro-6-fluorobenzyl)cinchonidinium bromide]
SI, selective index Ki(AChE)/Ki(BChE) (purified human BChE): 1.9
Ki (purified human BChE; [1]): 5 ± 0.3 µM
Ki (recombinant human AChE): 9.9 ± 0.8 µM

C=CC1C[N+]2(Cc3ccc(Br)cc3F)CCC1C[C@H]2[C@H](O)c1ccnc2ccccc12 (some centres unmarked) [CD 2F-4Br, N-(2-fluoro-4-bromobenzyl)cinchonidinium bromide]
SI, selective index Ki(AChE)/Ki(BChE) (purified human BChE): 10
Ki (purified human BChE; [1]): 0.68 ± 0.05 µM
Ki (recombinant human AChE): 7.2 ± 0.4 µM

C=CC1C[N+]2(Cc3c(F)cccc3C(F)(F)F)CCC1C[C@H]2[C@H](O)c1ccnc2ccccc12 (some centres unmarked) [CD 2F-6CF3, N-(2-fluoro-6-trifluoromethylbenzyl)cinchonidinium bromide]
SI, selective index Ki(AChE)/Ki(BChE) (purified human BChE): 6.1
Ki (purified human BChE; [1]): 5.7 ± 0.6 µM
Ki (recombinant human AChE): 35 ± 4 µM

C=CC1C[N+]2(Cc3ccccc3F)CCC1C[C@H]2[C@H](O)c1ccnc2ccccc12 (some centres unmarked) [CD 2F]
SI, selective index Ki(AChE)/Ki(BChE) (purified human BChE): 40
Ki (purified human BChE; [1]): 0.82 ± 0.03 µM
Ki (recombinant human AChE): 33 ± 1 µM

C=CC1C[N+]2(Cc3ccc(F)c(F)c3)CCC1C[C@H]2[C@H](O)c1ccnc2ccccc12 (some centres unmarked) [CD 3,4F]
SI, selective index Ki(AChE)/Ki(BChE) (purified human BChE): 10
Ki (purified human BChE; [1]): 1.3 ± 0.1 µM
Ki (recombinant human AChE): 13 ± 1 µM

C=CC1C[N+]2(Cc3cc(F)cc(F)c3)CCC1C[C@H]2[C@H](O)c1ccnc2ccccc12 (some centres unmarked) [CD 3,5F]
Stereoselectivity Ki(CN/CD) BChE (purified human BChE; ratio > 1: higher affinity toward CD over CN pseudo-enantiomer): 78
Ki (purified human BChE; stated in text as around): ~0.076 µM
SI, selective index Ki(AChE)/Ki(BChE) (purified human BChE): 123
Ki (purified human BChE; [1]): 0.081 ± 0.01 µM
Ki (recombinant human AChE): 10 ± 1 µM

C=CC1C[N+]2(Cc3cccc(C(F)(F)F)c3)CCC1C[C@H]2[C@H](O)c1ccnc2ccccc12 (some centres unmarked) [CD 3CF3]
SI, selective index Ki(AChE)/Ki(BChE) (purified human BChE): 14
Ki (purified human BChE; [1]): 2.4 ± 0.1 µM
Ki (recombinant human AChE): 34 ± 1 µM

C=CC1C[N+]2(Cc3cccc(F)c3)CCC1C[C@H]2[C@H](O)c1ccnc2ccccc12 (some centres unmarked) [CD 3F, N-(meta-fluorobenzyl)cinchonidinium bromide]
Ki (purified human BChE; stated in text as around): ~0.076 µM
SI, selective index Ki(AChE)/Ki(BChE) (purified human BChE): 533
Ki (purified human BChE; [1]): 0.075 ± 0.005 µM
Ki (recombinant human AChE): 40 ± 2 µM

C=CC1C[N+]2(Cc3cccc(OC(F)(F)F)c3)CCC1C[C@H]2[C@H](O)c1ccnc2ccccc12 (some centres unmarked) [CD 3OCF3]
SI, selective index Ki(AChE)/Ki(BChE) (purified human BChE): 1.1
Ki (purified human BChE; [1]): 7.4 ± 0.4 µM
Ki (recombinant human AChE): 8.2 ± 1.1 µM

C=CC1C[N+]2(Cc3ccc(C(F)(F)F)cc3)CCC1C[C@H]2[C@H](O)c1ccnc2ccccc12 (some centres unmarked) [CD 4CF3]
SI, selective index Ki(AChE)/Ki(BChE) (purified human BChE): 11
Ki (purified human BChE; [1]): 2 ± 0.1 µM
Ki (recombinant human AChE): 21 ± 1 µM

C=CC1C[N+]2(Cc3ccc(F)cc3)CCC1C[C@H]2[C@H](O)c1ccnc2ccccc12 (some centres unmarked) [CD 4F]
SI, selective index Ki(AChE)/Ki(BChE) (purified human BChE): 46
Ki (purified human BChE; [1]): 1.5 ± 0.1 µM
Ki (recombinant human AChE): 69 ± 3 µM

C=CC1C[N+]2(Cc3ccc(OC(F)(F)F)cc3)CCC1C[C@H]2[C@H](O)c1ccnc2ccccc12 (some centres unmarked) [CD 4OCF3]
SI, selective index Ki(AChE)/Ki(BChE) (purified human BChE): 0.96
Ki (purified human BChE; [1]): 7.6 ± 0.5 µM
Ki (recombinant human AChE): 7.3 ± 0.5 µM

C=CC1C[N+]2(Cc3ccccc3)CCC1C[C@H]2[C@H](O)c1ccnc2ccccc12 (some centres unmarked) [CD Bzl]
SI, selective index Ki(AChE)/Ki(BChE) (purified human BChE): 200
Ki (purified human BChE; [1]): 0.075 ± 0.007 µM
Ki (recombinant human AChE): 15 ± 2 µM

C=CC1C[N+]2(Cc3cccc(F)c3F)CCC1C[C@@H]2[C@@H](O)c1ccnc2ccccc12 (some centres unmarked) [CN 2,3F, N-(2,3-difluorobenzyl)cinchoninium bromide]
SI, selective index Ki(AChE)/Ki(BChE) (purified human BChE): 4.8
Ki (purified human BChE; [1]): 9.6 ± 0.4 µM
Ki (recombinant human AChE): 46 ± 3 µM

C=CC1C[N+]2(Cc3ccc(F)cc3F)CCC1C[C@@H]2[C@@H](O)c1ccnc2ccccc12 (some centres unmarked) [CN 2,4F, N-(2,4-difluorobenzyl)cinchoninium bromide]
SI, selective index Ki(AChE)/Ki(BChE) (purified human BChE): 4.5
Ki (purified human BChE; [1]): 6 ± 0.2 µM
Ki (recombinant human AChE): 27 ± 1 µM

C=CC1C[N+]2(Cc3c(F)cccc3F)CCC1C[C@@H]2[C@@H](O)c1ccnc2ccccc12 (some centres unmarked) [CN 2,6F, N-(2,6-difluorobenzyl)cinchoninium bromide]
SI, selective index Ki(AChE)/Ki(BChE) (purified human BChE): 5.8
Ki (purified human BChE; [1]): 5.2 ± 0.2 µM
Ki (recombinant human AChE): 30 ± 2 µM

C=CC1C[N+]2(Cc3c(F)cccc3Cl)CCC1C[C@@H]2[C@@H](O)c1ccnc2ccccc12 (some centres unmarked) [CN 2Cl-6F, N-(2-chloro-6-fluorobenzyl)cinchoninium bromide]
SI, selective index Ki(AChE)/Ki(BChE) (purified human BChE): 14
Ki (purified human BChE; [1]): 1.2 µM
Ki (recombinant human AChE): 17 ± 1 µM

C=CC1C[N+]2(Cc3ccc(Br)cc3F)CCC1C[C@@H]2[C@@H](O)c1ccnc2ccccc12 (some centres unmarked) [CN 2F-4Br, N-(2-fluoro-4-bromobenzyl)cinchoninium bromide]
SI, selective index Ki(AChE)/Ki(BChE) (purified human BChE): 2.9
Ki (purified human BChE; [1]): 5.5 ± 0.3 µM
Ki (recombinant human AChE): 16 ± 1 µM

C=CC1C[N+]2(Cc3c(F)cccc3C(F)(F)F)CCC1C[C@@H]2[C@@H](O)c1ccnc2ccccc12 (some centres unmarked) [CN 2F-6CF3, N-(2-fluoro-6-trifluoromethylbenzyl)cinchoninium bromide]
SI, selective index Ki(AChE)/Ki(BChE) (purified human BChE): 7.9
Ki (purified human BChE; [1]): 7.7 ± 0.4 µM
Ki (recombinant human AChE): 61 ± 2 µM

C=CC1C[N+]2(Cc3ccccc3F)CCC1C[C@@H]2[C@@H](O)c1ccnc2ccccc12 (some centres unmarked) [CN 2F]
SI, selective index Ki(AChE)/Ki(BChE) (purified human BChE): 33
Ki (purified human BChE; [1]): 2.4 ± 0.1 µM
Ki (recombinant human AChE): 80 ± 2 µM

C=CC1C[N+]2(Cc3ccc(F)c(F)c3)CCC1C[C@@H]2[C@@H](O)c1ccnc2ccccc12 (some centres unmarked) [CN 3,4F]
SI, selective index Ki(AChE)/Ki(BChE) (purified human BChE): 2.3
Ki (purified human BChE; [1]): 6.1 ± 0.2 µM
Ki (recombinant human AChE): 14 ± 0.2 µM

C=CC1C[N+]2(Cc3cc(F)cc(F)c3)CCC1C[C@@H]2[C@@H](O)c1ccnc2ccccc12 (some centres unmarked) [CN 3,5F]
SI, selective index Ki(AChE)/Ki(BChE) (purified human BChE): 5.4
Ki (purified human BChE; [1]): 6.3 ± 0.2 µM
Ki (recombinant human AChE): 34 ± 3 µM

C=CC1C[N+]2(Cc3cccc(C(F)(F)F)c3)CCC1C[C@@H]2[C@@H](O)c1ccnc2ccccc12 (some centres unmarked) [CN 3CF3]
SI, selective index Ki(AChE)/Ki(BChE) (purified human BChE): 13
Ki (purified human BChE; [1]): 4.4 ± 0.2 µM
Ki (recombinant human AChE): 59 ± 2 µM

C=CC1C[N+]2(Cc3cccc(F)c3)CCC1C[C@@H]2[C@@H](O)c1ccnc2ccccc12 (some centres unmarked) [CN 3F]
SI, selective index Ki(AChE)/Ki(BChE) (purified human BChE): 2.1
Ki (purified human BChE; [1]): 6.1 ± 0.3 µM
Ki (recombinant human AChE): 13 ± 0.4 µM

C=CC1C[N+]2(Cc3cccc(OC(F)(F)F)c3)CCC1C[C@@H]2[C@@H](O)c1ccnc2ccccc12 (some centres unmarked) [CN 3OCF3, N-(3-trifluoromethoxybenzyl)cinchoninium bromide]
SI, selective index Ki(AChE)/Ki(BChE) (purified human BChE): 8.7
Ki (purified human BChE; [1]): 4.7 ± 0.2 µM
Ki (recombinant human AChE): 41 ± 2 µM

C=CC1C[N+]2(Cc3ccc(C(F)(F)F)cc3)CCC1C[C@@H]2[C@@H](O)c1ccnc2ccccc12 (some centres unmarked) [CN 4CF3]
SI, selective index Ki(AChE)/Ki(BChE) (purified human BChE): 5.2
Ki (purified human BChE; [1]): 6 ± 0.3 µM
Ki (recombinant human AChE): 31 ± 1 µM

C=CC1C[N+]2(Cc3ccc(F)cc3)CCC1C[C@@H]2[C@@H](O)c1ccnc2ccccc12 (some centres unmarked) [CN 4F, N-(para-fluorobenzyl)cinchoninium bromide]
SI, selective index Ki(AChE)/Ki(BChE) (purified human BChE): 1.5
Ki (purified human BChE; [1]): 2.6 ± 0.1 µM
Ki (recombinant human AChE): 3.9 ± 0.2 µM

C=CC1C[N+]2(Cc3ccc(OC(F)(F)F)cc3)CCC1C[C@@H]2[C@@H](O)c1ccnc2ccccc12 (some centres unmarked) [CN 4OCF3]
SI, selective index Ki(AChE)/Ki(BChE) (purified human BChE): 2.4
Ki (purified human BChE; [1]): 7.8 ± 0.3 µM
Ki (recombinant human AChE): 19 ± 2 µM

CC[C@H]1CN2CC[C@H]1C[C@@H]2[C@@H](O)c1ccnc2ccccc12 [DHCN, 10,11-dihydrocinchonine]
times higher affinity of BChE for DHCN over DHCD (purified human BChE; unsubstituted 10,11-dihydro compounds): 16
Ki (purified human BChE; [1]): 1.2 ± 0.1 µM
